What was measured:
Type in all cases: cell-based, rat
[1] = test system: cortical neuronal cultures; assay: Differential protein expression in preconditioned neuronal cultures, 2-D gel electrophoresis (Example 1); conditions: CHX 0.3 μg/ml for 24 h; MK801 1 μM for 30 min, then 12 h; versus untreated DIV 12 cultures
Experimental: Cortical tissue from E18-E19 rats was dissociated in Hibernate E medium (Invitrogen, Carlsbad, Calif., USA) supplemented with 1.3 mM L-cysteine, 10 units/ml papain (ICN, Costa Mesa, Calif., USA) and 50 units/ml DNase (Sigma, St. Louis, Mo., USA) and washed in cold Dulbecco's Modified Eagle Medium (Invitrogen)/10% horse serum.
Neurons were resuspended in Neurobasal (NB; Invitrogen)/2% B27 supplement (Invitrogen), the cell concentration was adjusted to 1.8 million neurons/2 ml and 2 ml inoculated into each well of a 6 well plate pretreated as described below.
Neuronal cultures were maintained in a CO2 incubator (5% CO2, 95% air balance, 98% humidity) at 37° C. […]
Total protein was isolated from control and preconditioned neuronal cultures at the times outlined above by removing all the media from wells and washing once with phosphate-buffered saline, before the addition of lysis buffer (7M urea, 2M thiourea, 40 mM tris-HCl, 1% sulfobetaine 3-10, 2% CHAPS, 65 mM DTT, 1% Bio-Lyte carrier ampholytes pH 3-10; Bio-Rad, Hercules, Calif., USA). […] Protein content was determined by amino acid analysis using Waters AccQ Tag chemistry (Millipore Corporation, Milford, Mass., USA) as previously described (Cohen et al., 1983, in: Angeletti, R. H. (Ed.), Techniques in Protein Chemistry IV, Academic Press, San Diego). […]

[2] = test system: cortical neuronal cultures; assay: Cumene hydroperoxide oxidative stress, neuronal survival by MTS assay (Example 4); conditions: for neuronal survival following cumene exposure: cumene 25 μM, survival 24 h later, untreated 15%, FIG. 8A
Experimental: (§1) Neurons were resuspended in Neurobasal (NB; Invitrogen) containing 2% B27 supplement (B27; Invitrogen).
(§2) Neuronal cultures were maintained in a CO2 incubator (5% CO2, 95% air balance, 98% humidity) at 37° C.

[3] = test system: primary cortical neuronal cultures; assay: Cumene oxidative stress injury model (Example 3); conditions: protein added (0.1-100 nM) at the time of cumene exposure
Source text: Adenovirus vectors were used to upregulate specific proteins in primary cortical neuronal cultures. cDNA for proteins of interest was obtained by RT-PCR and cloned into pGEM. Sequence verified cDNA clones were then used to construct recombinant adenoviruses expressing genes of interest under the control of the rous sarcoma virus (RSV) promoter and the woodchuck post-transcriptional regulatory element (WPRE). The recombinant viruses also express the reporter GFP under the control of the CMV promoter. Protein of interest expression in recombinant adenoviruses was confirmed in transfected HEK and/or neuronal cultures. Control viruses consisted of an adenovirus expressing RFP, no gene (empty vector) and the anti-apoptotic gene Bcl-xl. […]
Cumene induced oxidative stress was performed by removing media from neuronal culture wells and adding 100 μl DMEM/N2 medium containing different concentrations of cumene (20-25 μM). […] Neuronal viability was measured and analysed as described above.

[4] = test system: primary cortical neuronal cultures; assay: In vitro ischaemia/stroke model, transient oxygen glucose deprivation (Example 3); conditions: protein added (0.1-100 nM) at the time of in vitro ischaemia
[5] = test system: cortical neuronal cultures; assay: In vitro ischemia, neuronal survival by MTS assay (Example 4); conditions: rhCyPA 100 nM; survival 24 h later; untreated 24%; FIG. 8B
Experimental: as §1, §2

[6] = test system: ERK1 (p44); assay: rhCyPA mediated ERK1/2 phosphorylation time course, Western blot densitometry; conditions: rhCyPA 100 nM
Experimental: (§3) FIG. 7—time course of recombinant human (rh) CyPA mediated ERK1/2 phosphorylation in cortical neuronal cultures. Neuronal cultures were treated with rhCyPA (100 nM) for the indicated times. The resulting protein lysates were probed with antibody to detect phosphorylated ERK1/2 and then re-probed for total ERK1/2.
(§4) For protein extraction, brain tissue and cultured cells were lysed in buffer (50 mM Tris-HCl pH 7.5, 100 mM NaCl, 20 mM EDTA, 0.1% SDS, 0.2% deoxycholic acid, containing Complete™ protein inhibitor, Roche), vortexed briefly and clarified by centrifugation at 4° C. Protein concentrations were determined by the Bradford assay (Biorad, USA). Equivalent amounts of protein (5-10 μg per lane) were loaded and separated on 4-12% gradient SDS poly-acrylamide Bis-Tris mini-gels, (NuPAGE; Invitrogen) and transferred to a PVDF membrane. Membranes were blocked in PBS/T containing ovalbumin (1 mg/mL) for 1 min at room temperature before washing in PBS/T and PBS.
(§5) Membranes were incubated at 4° C. overnight in blocking solution containing primary antibody, washed and incubated in blocking solution containing HRP conjugated secondary antibody for 1 h at room temperature. Protein bands were detected using ECL Plus (Amersham, UK) and visualised by exposure to x-ray film (Hyperfilm; Amersham), scanned and quantified using NIH image. Primary antibodies used were; rabbit polyclonal anti-CyPA (1:25000; Biomol), mouse monoclonal anti-β-tubulin (0.5 μg/mL, Pharmingen, USA), mouse monoclonal anti-phospho ERK1/2 (1:5000; Santa Cruz), rabbit polyclonal anti-ERK1/2 (1:10000; Santa Cruz) and goat polyclonal anti-CD147 (1:10000; Santa Cruz). Secondary antibodies were donkey anti-rabbit IgG (1:25,000-1:50,000; Amersham), sheep anti-mouse IgG (1:10,000-1:20,000; Amersham) and rabbit anti-goat IgG (Zymed).
(§6) To determine if exogenously applied CyPA can mediate ERK1/2 activation we exposed neuronal cultures to rhCyPA protein (100 nM) and the results are summarised in FIG. 7. Addition of rhCyPA induced a rapid phosphorylation of ERK1 and ERK2, which peaked at 5 min, before returning to basal levels.

[7] = test system: ERK2 (p42); assay: as above; conditions: rhCyPA 100 nM
Experimental: as §3, §4, §5, §6

## C[C@@H]1C[C@@H]([C@H](O)CC2CC(=O)NC(=O)C2)C(=O)[C@@H](C)C1 [CHX, cycloheximide]
[1]
  overall change of protein expression after preconditioning: protein down-regulation

## C[C@]12N[C@H](Cc3ccccc31)c1ccccc12 [MK801]
[1]
  overall change of protein expression after preconditioning: protein down-regulation

## CC(C)c1ccccc1.OO [cumene, cumene hydroperoxide, reference compound]
[2]; 25 μM cumene, dose response experiment, data not shown
  cell survival after exposure to cumene: 15-30%

## CyPA protein: CyPA protein suspended in PBS, added to neuronal cultures (0.1-100 nM)
[3]
  neuroprotection against cumene insult: neuroprotective
[4]
  neuroprotection against in vitro ischaemia: neuroprotective

## rhCyPA: recombinant human cyclophilin A (rhCyPA, Biomol)
[2]; rhCyPA 10 nM
  neuronal survival following cumene exposure: 56%
[2]; rhCyPA 100 nM
  neuronal survival following cumene exposure: 70%
[5]
  neuronal survival following in vitro ischemia: 35%
[6]; at 5 min, FIG. 7
  ERK1 (p44) activation increase: 2.6 fold
[6]; then returning to basal levels
  time of peak phosphorylation of ERK1: 5 min
[7]; at 5 min, FIG. 7
  ERK2 (p42) activation increase: 3.3 fold
[7]; then returning to basal levels
  time of peak phosphorylation of ERK2: 5 min
